From patent US5518988A, “Method of counteracting an ethylene response in plants” (North Carolina State University, priority 1994, dated 1996)

Key:
carnations [1] = assay: Protection of in vivo cut carnations against exogenous ethylene (pre-treatment with compound); parameters: species or system carnation (Dianthus caryophyllus)
Description: The treatment of carnations with ethylene hastens the process of senescence, producing a petal in-rolling phenomena (Halevy and Mayak, 1981). Carnations at stage II, with low ethylene production and no visible signs of senescence (Woodson, 1987) were treated with 1-methylcyclopropeneat different concentration for 6 hours before adding […] of ethylene for 1 hour.
1-Methylcyclopropene was added for various times before the application of exogenous ethylene. […] Treatment with about 250 to 300 nl/l of 1-methylcyclopropene for five minutes was enough to protect the flowers. Treated for 24 hours, with 0.5 nl/l protected against 1 ml/l of ethylene.
Flowers were treated with 5 nl/l of product during 6 hours, then, stored for 10 days at room temperature. One ml/l of ethylene was then added over 18 hours. Ethylene had no effect on the treated carnations 10 days after the 1-methylcyclopropene treatment (data not shown). The binding of 1-methylcyclopropene on carnations seems to be irreversible.
Cut carnations at stage I and stage III were treated with 1-methylcyclopropene. For young carnations, the concentration of 1-methylcyclopropene giving a protective effect was about 1.25 and 2.5 nl/l. For these, the protection against ethylene was total. For old carnations, rates between 2.5 and 5 nl/l of 1-methylcyclopropene were sufficient to give a response, but total protection was not achieved. Total protection of older carnations was only achieved with 10 nl/l of 1-methylcyclopropene (data not shown).

carnations [2] = assay: Stopping the senescent process (petal in-rolling) of carnations due to exogenous and endogenous ethylene; type: in vivo, carnation (Dianthus caryophyllus)
Description: Flowers in a pre-senescent stage were treated with 5 nl/l of 1-methylcyclopropene and the senescent process was observed.
The carnations need to have an exogenous ethylene exposure at least for 6 hours to have a visible sign of senescence. Treatment with 3 nl/l of 1-methylcyclopropene is enough to stop that process. […] 1-methylcyclopropene seems to reduce and prevent the autocatalytic production of ethylene.
The ability of 1-methylcyclopropene to stop the senescence process was observed by adding ethylene over 6 hours. […] Thereafter 1-methylcyclopropene was added. The process of senescence was stopped by the binding of 1-methylcyclopropene on the ethylene receptor and giving a molecular response.

carnations [3] = assay: Ethylene production of carnation flowers; type: in vivo, carnation (Dianthus caryophyllus); conditions: compound applied at the ethylene climacteric; thereafter ethylene production measured
Description: Ethylene production was followed from the beginning of the ethylene climacteric production. […] 1- Methylcyclopropene was applied. Thereafter ethylene production was measured.

ethylene receptor [4] = assay: 14C-ethylene binding to carnation petals; parameters: species or system carnation (Dianthus caryophyllus); conditions: flowers treated with 5 nl/l, stored 4 days at room temperature at 4° C. before binding experiment (FIG. 4)
Description: Triplicate samples of 3 g cut carnations' petals were placed in a 2.51 desiccator containing ^14 C-ethylene-mercuric perchlorate complex (110 mCi/mM) in a 25 ml Erlenmeyer flask. Then, an excess of […] lithium chloride was added to the ethylene-mercuric perchlorate complex to release the gaseous ethylene. The mixture was stirred for 6 minutes. To determine the amount of binding, 3 ml of unlabelled ethylene was added in one desiccator. After 2 hours of ethylene exposure, the desiccators were opened and the samples were aerated for 4 minutes. Each sample was then placed in a 250 ml jar. 0.2 Ml of mercuric perchlorate on a 0.5 cm^2 piece of fiber-glass filter in a scintillation vial was then added. After 18 hours, the scintillation vials were removed, scintillation fluid added and the radioactivity counted for each sample.
To determine if the 1-methylcyclopropene acted on the ethylene receptor, flowers were treated with 5 nl/l of 1-methylcyclopropene and stored for 4 days at room temperature at 4° C. before the ethylene binding experiment. Carnation petals preincubated with 1-methylcyclopropene and control petals which had not been incubated with 1-methylcyclopropene were then incubated in the presence of ^14 C-ethylene. One sample representing the control was incubated with a saturating concentration of unlabelled ethylene in the presence of ^14 C-ethylene. […]

Bananas = assay: Banana ripening (chlorophyll disappearance); type: in vivo, bananas (Musa sapientum)
Description: Bananas were individually placed in a 3 l jar. 1-Methylcyclopropene was injected into the jar at a determined concentration. The plant material was then aerated and 1 ml/l of ethylene was added for 12 hours. Controls were held in jars without chemical treatment. Chlorophyll measurement was made as previously described in Sisler and Wood, 1988). The experiment was done 7 days after 1-methylcyclopropene treatment.

tomatoes = assay: Tomato ripening after ethylene treatment; type: in vivo, tomatoes (Lycopersicon esculentum); conditions: applied for 12 hours before the ethylene treatment
Description: Tomato seeds were washed with NaOCl (10%) and rinsed with water. The seeds were placed on wetted filter paper with 10 mM sodium phosphate buffer at pH 5.8. The germination was done in the dark. When the seedlings were about 1 mm height, 30 seeds by sample were placed on wet filter paper in a 0.5 l jar. 1-Methylcyclopropene was added over 24 hours before adding 10 μl/l ethylene for 5 days.
When 1-methylcyclopropene was applied for 12 hours before the ethylene treatment, only 10 nl/l of compound was enough to preserve tomatoes.

ethylene receptor [5] = assay: Diffusion of 3H 1-methylcyclopropene from carnation petals; type: binding, carnation (Dianthus caryophyllus)
Description: In order to label the ethylene receptor, 1-methylcyclopropene was labelled with tritium and the specific activity obtained was 60 mCi/mM. An eventual diffusion of the compound was studied on carnations. The flowers were treated with 1-methylcyclopropene, and with large amounts of ethylene. Control flowers were treated with 1-methylcyclopropene alone. The diffusion was followed for 7 days. […] When the experiment was made at 4° C., the diffusion was nonexistent.

SMILES	effect of ethylene on treated carnations 10 days after treatment (carnations [1]; 5 nl/l for 6 hours, stored 10 days at room temperature, then 1 ml/l ethylene over 18 hours)	minimal concentration preventing the ethylene process, compared with that at the other ethylene levels (carnations [1]; flowers treated with 1 ml/l of ethylene)	concentration to protect the flower against ethylene action, compared with STS, DACP or NBD (carnations [1]; in vivo carnations)	concentration achieving total protection (carnations [1]; old cut carnations (stage III))	minimal concentration preventing the ethylene process (flowers looked like control without ethylene) (carnations [1]; stage II carnations, 6 hours treatment before 10 or 1000 ml/l ethylene for 1 hour, after 4 days)	concentration needed to protect the flowers against exogenous ethylene (carnations [1]; treated for 24 hours, against 1 ml/l of ethylene)	extent of protection against ethylene (carnations [1]; young cut carnations (stage I), about 1.25 and 2.5 nl/l)	senescent process of flowers treated in a pre-senescent stage (carnations [2]; 5 nl/l, observed 15 days later, untreated control in-rolled one day later)	concentration enough to stop the senescence process due to exogenous ethylene exposure (carnations [2]; after exogenous ethylene exposure of at least 6 hours)	process of senescence after in-rolling had begun (carnations [2]; ethylene over 6 hours, in-rolling begun, thereafter compound added)	petal in-rolling of carnations treated with ethylene and then compound (carnations [2]; ethylene, then 1-methylcyclopropene)	ethylene production, control versus treated flowers (FIG. 3) (carnations [3])	specific 14C-ethylene binding (ethylene receptor [4])	Ki (chlorophyll measurement) (Bananas; 1 ml/l ethylene for 12 hours, measured 7 days after treatment)	Ki for chlorophyll disappearance (Bananas; experiments done in the dark)	Ki for chlorophyll disappearance (Bananas; experiments done in the light)	time for which ripening was prevented (Bananas; treated bananas, fruits turned brown after this period)	concentration enough to preserve tomatoes (tomatoes)	diffusion of the labelled compound from carnations (ethylene receptor [5]; experiment made at 4° C.)	diffusion of the labelled compound from carnations (ethylene receptor [5]; followed for 7 days, flowers without ethylene treatment)
CC1=CC1 [1-methylcyclopropene]	no effect	the same	much lower	10 nl/l	2.5 nl/l	0.5 nl/l	total	did not show a senescent process	3 nl/l	stopped	no visible sign of the phenomenon	considerably lower	totally inhibited	0.4 nl/l	40 ul/l	1.2 ul/l	about 15 days	10 nl/l		
CC1=CC1 [^3 H 1-methylcyclopropene]																			nonexistent	a little diffusion
